Measurements from US20250034161A1, “SPIROCYCLIC COMPOUND AS KRAS-G12C INHIBITOR” (Shanghai Euregen Biopharma Co., Ltd., priority 2020, published 2025).
Read-outs that look alike come from different tables or passages of the source.

Test system: NCI-H358 cells
Assay: Inhibitory effect on proliferation of NCI-H358 cells (CellTiter-Glo, 72 h)
Type: cell-based, human
Description: Inhibitory effect of compounds on the proliferation of […] cells • 1. Experimental principle: NCI-H358 cell is human non-small cell lung cancer cell line expressing KRAS G12C. […] Test materials: NCI-H358 cells were purchased from ATCC; CellTiter-GloR was purchased from Promega (item: G7571); RPMI-1640 was purchased from ATCC (item: 30-2001): fetal bovine serum (FBS) was purchased from EXCELL (item: FND500); Penicillin-streptomycin was purchased from Gibco (item: 15140-122); 0.25% trypsin-ethylenediaminetetraacetic acid digestive juice (Trypsin-EDTA) was purchased from Gibco (item: 25200-072); dimethyl sulfoxide (DMSO) was purchased from Sigma (item: D2650); 96-well plate was purchased from Corning (item: 3610); Incubator was purchased from Thermo (model: 3111); Inverted microscope was purchased from Nikon (item: TS-100); Automatic cell counter was purchased from Life technologies (model: Countess II); Enzyme plate reader was purchased from PerkinElmer (model: Envision); The data processing software was GraphPad Prism 5.0. • 3. Test method:
Cells in logarithmic growth phase were resuspended in growth medium (RPMI-1640+10% FBS) and diluted to target density ([…]). The above cell suspension was inoculated into 96-well plates at 100 μL per well; incubated overnight in a 37° C., 5% CO2 incubator. Medium was used as background control.
The test compound was dissolved in DMSO to prepare a stock solution at a concentration of 10 mmol/L. The stock solution was first diluted to 2 mmol/L with DMSO, and then diluted in 3-fold gradient for a total of 10 concentrations. 3 μL of each concentration of the above solution was taken and diluted with 197 μL of growth medium. […] at 50 μL/well in the 96-well plate. The cells to which the test compound was added were incubated in a 37° C., 5% CO2 incubator for 72 hours. The 96-well plate was equilibrated at room temperature, and 40 μL CellTiter-Glo reagent was added to each well. Then, the plate was mixed on the vortex for 2 minutes, incubated at room temperature for 60 minutes. The luminescence value was read on an EnVision microplate reader, and the IC50 of the compound was calculated using the GraphPad Prism 5.0 software.

Structure (SMILES) | IC50 (Homo sapiens) | IC50
C=CC(=O)N1CCN(c2nc(OCC3CCCN3C)nc3c2CN(C)C2(CCc4ccccc42)C3)CC1 (stereo not shown) [Compound 1] | 1000 to 10000 nM | –
C=CC(=O)N1CCN(c2nc(OC[C@@H]3CCCN3C)nc3c2CN(C)C2(CCc4ccc(Cl)cc42)C3)C[C@@H]1CC#N (stereo partly shown) [Compound 5] | 100 to 1000 nM | –
CN1CCC[C@H]1COc1nc2c(c(N3CCN(C(=O)/C=C/CF)[C@@H](CC#N)C3)n1)CN(C)C1(CCc3ccccc31)C2 (stereo partly shown) [Compound 14] | – | 1000 to 10000 nM
C=C(F)C(=O)N1CCN(c2nc(OC[C@@]34CCCN3C[C@H](F)C4)nc3c2CN(C)C2(CCc4cccc(Cl)c42)C3)C[C@@H]1CC#N (stereo partly shown) [Compound 35] | < 100 nM | –
C=CC(=O)N1CCN(c2nc(OC[C@@H]3CCCN3C)nc3c2CN(C)C2(CCc4ccccc42)C3)[C@@H](C)C1 (stereo partly shown) [Formate of 4] | – | 1000 to 10000 nM
C=CC(=O)N1CCN(c2nc(OC[C@@H]3CCCN3C)nc3c2CNC2(CCc4cccc(F)c42)C3)C[C@@H]1CC#N (stereo partly shown) [Formate of 10] | – | 100 to 1000 nM
C=CC(=O)N1CCN(c2nc(OC[C@@H]3CCCN3C)nc3c2CN(C)C2(CCc4ccc(F)cc42)C3)C[C@@H]1CC#N (stereo partly shown) [Formate of 11] | – | 1000 to 10000 nM

Other lines, results leading:

IC50 (Homo sapiens) | IC50 | Structure (SMILES)
– | 100 to 1000 nM | CN(C)C/C=C/C(=O)N1CCN(c2nc(OC[C@@H]3CCCN3C)nc3c2CN(C)C2(CCc4cccc(F)c42)C3)C[C@@H]1CC#N (stereo partly shown) [Formate of 15]
– | < 100 nM | C=CC(=O)N1CCN(c2nc(OC[C@@H]3CCCN3C)nc3c2CN(C)C2(CCc4cccc(Cl)c42)C3)C[C@@H]1CC#N (stereo partly shown) [Formate of 18]
– | < 100 nM | C=CC(=O)N1CCN(c2nc(OC[C@@H]3CCCN3C)nc3c2CN(C)C2(CCCc4ccccc42)C3)C[C@@H]1CC#N (stereo partly shown) [Formate of 20]
– | 100 to 1000 nM | C=CC(=O)N1CCN(c2nc(OC[C@@H]3CCCN3C)nc3c2CN(C)C2(CCOc4ccccc42)C3)C[C@@H]1CC#N (stereo partly shown) [Formate of 22]
– | 100 to 1000 nM | C=CC(=O)N1CCN(c2nc(OC[C@@H]3CCCN3C)nc3c2CN(C)C2(CCc4c(OC)cccc42)C3)C[C@@H]1CC#N (stereo partly shown) [Formate of 24]
– | < 100 nM | C=CC(=O)N1CCN(c2nc(OC[C@@]34CCCN3C[C@H](F)C4)nc3c2CN(C)C2(CCc4cccc(Cl)c42)C3)C[C@@H]1CC#N (stereo partly shown) [Formate of 34]
